# Structures can show the parent of a compound that is named as a salt.
# Target: T1, human factor Xa (Homo sapiens, UniProt P00742)
# T1 construct: purchased Cosmo Bio Co., Ltd, Tokyo, Japan
# Assay: Determination of anti-factor Xa activity (chromogenic substrate S-2222)
# Assay type: biochemical
# Details: 0.25 unit/ml human factor Xa, 0.4 mM S-2222, tris-HCl buffer pH 8.4, 5 min at room temperature, absorbance 405 nm; read-out: Factor Xa inhibitory activity [IC50 (nM)]
# Description: Anti-factor Xa activity was determined according to the method of Hara et al. (Thromb. Haemost, 71, 314 (1994), with slight modifications. A 50 mM tris-HCl buffer (pH 8.4) containing 0.9% NaCl, 0.4 mM chromogenic substrate, S-2222 (Daiichi Pure Chemicals Co., Ltd., Tokyo, Japan), and a test compound were mixed, and the reaction was started by adding 0.25 unit/ml human factor Xa (Cosmo Bio Co., Ltd, Tokyo, Japan). Distilled water instead of the test compound was added to the buffer in the control group. The reaction mixture in a total volume of 0.1 ml was incubated for 5 min at room temperature. The absorbance at 405 nm was measured continuously using a 96-well microplate reader (model 550, BioRad), and the increase in absorbance for 5 min was calculated as an index of factor Xa activity.
# T1 sequence (P00742 235-488 limits assumed): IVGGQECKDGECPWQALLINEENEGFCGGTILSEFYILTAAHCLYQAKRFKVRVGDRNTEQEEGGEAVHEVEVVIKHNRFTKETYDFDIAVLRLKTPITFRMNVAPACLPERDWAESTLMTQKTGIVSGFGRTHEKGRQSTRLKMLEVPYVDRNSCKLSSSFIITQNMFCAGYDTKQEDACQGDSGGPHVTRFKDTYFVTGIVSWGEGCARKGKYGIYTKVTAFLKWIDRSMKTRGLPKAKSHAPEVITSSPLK
# T1 sequence (P00742 41-179 partner limits assumed): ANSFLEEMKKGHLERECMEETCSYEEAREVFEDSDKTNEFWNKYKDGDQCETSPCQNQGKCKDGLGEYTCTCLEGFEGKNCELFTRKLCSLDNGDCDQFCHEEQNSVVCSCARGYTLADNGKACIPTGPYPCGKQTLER
row,Compound,IC50 [nM]
1,"CC(=N)N1CCC(Oc2ccc(N(C/C=C/c3cccc(C(=N)N)c3)S(=O)(=O)CC(=O)O)cc2)CC1 [Example 4, N-[4-(1-Acetimidoylpiperidin-4-yloxy)phenyl]-N-[3-(3-amidinophenyl)-2-(E)-propenyl]sulfamoylacetic Acid Dihydrochloride]",6.4
2,"CCOC(=O)CS(=O)(=O)N(C/C=C/c1cccc(C(=N)N)c1)c1ccc(OC2CCN(C(C)=N)CC2)c(F)c1 [Example 10, Ethyl N-[4-(1-Acetimidoylpiperidin-4-yloxy)-3-fluorophenyl]-N-[3-(3-amidinophenyl)-2-(E)-propenyl]sulfamoylacetate Dihydrochloride]",4.6
3,"CCOC(=O)CS(=O)(=O)N(C/C=C/c1cccc(C(=N)N)c1)c1ccc(OC2CCN(C(C)=N)CC2)c(C(=O)OCC)c1 [Example 29, Ethyl N-[4-(1-Acetimidoylpiperidin-4-yloxy)-3-ethoxycarbonylphenyl]-N-[3-(3-amidinophenyl)-2-(E)-propenyl]sulfamoylacetate Dihydrochloride]",9
4,"CCOC(=O)CS(=O)(=O)N(C/C=C/c1cccc(C(=N)N)c1)c1cc(F)c(OC2CCN(C(C)=N)CC2)c(F)c1 [Example 46, Ethyl N-[4-(1-Acetimidoylpiperidin-4-yloxy)-3,5-difluorophenyl]-N-[3-(3-amidinophenyl)-2-(E)-propenyl]sulfamoylacetate Dihydrochloride]",6.8
5,"CCOC(=O)CS(=O)(=O)N(C/C=C/c1cccc(C(=N)N)c1)c1ccc(OC2CCN(C(C)=N)CC2)c(Br)c1 [Example 31, Ethyl N-[4-(1-Acetimidoylpiperidin-4-yloxy)-3-bromophenyl]-N-[3-(3-amidinophenyl)-2-(E)-propenyl]sulfamoylacetate Dihydrochloride]",10
6,"CCOC(=O)CS(=O)(=O)N(C/C=C/c1cccc(C(=N)N)c1)c1ccc(OC2CCN(C(C)=N)CC2)c(Cl)c1 [Example 8, Ethyl N-[4-(1-Acetimidoylpiperidin-4-yloxy)-3-chlorophenyl]-N-[3-(3-amidinophenyl)-2-(E)-propenyl]sulfamoylacetate Dihydrochloride]",4.5
7,"CC(=N)N1CCC(Oc2ccc(N(C/C=C/c3cccc(C(=N)N)c3)S(=O)(=O)CC(=O)O)cc2C(N)=O)CC1 [Example 36, N-[4-(1-Acetimidolpiperdin-4-yloxy)-3-carbamoylphenyl]-N-[3-(3-amidinophenyl)-2-(E)-propenyl]sulfamoylacetic Acid Dihydrochloride]",7.1
8,"CCOC(=O)CS(=O)(=O)N(C/C(F)=C/c1cccc(C(=N)N)c1)c1ccc(OC2CCN(C(C)=N)CC2)cc1 [Example 56, Ethyl N-[4-(1-Acetimidoylpiperidin-4-yloxy)phenyl]-N-[3-(3-amidinophenyl)-2-fluoro-2-(Z)-propenyl]sulfamoylacetate Dihydrochloride]",10
9,"CC(=N)N1CCC(Oc2ccc(N(C/C=C/c3cccc(C(=N)N)c3)S(=O)(=O)CC(=O)O)cc2F)CC1 [Example 11, N-[4-(1-Acetimidoylpiperidin-4-yloxy)-3-fluorophenyl]-N-[3-(3-amidinophenyl)-2-(E)-propenyl]sulfamoylacetic Acid Dihydrochloride]",8.1
10,"CCOC(=O)CS(=O)(=O)N(C/C=C/c1cccc(C(=N)N)c1)c1ccc(OC2CCN(C(C)=N)CC2)cc1 [Example 3, Ethyl N-[4-(1-Acetimidoylpiperidin-4-yloxy)phenyl]-N-[3-(3-amidinophenyl)-2-(E)-propenyl]sulfamoylacetate Dihydrochloride]",8.6
11,"CC(=N)N1CCC(Oc2ccc(N(C/C=C/c3cccc(C(=N)N)c3)S(=O)(=O)CC(=O)O)cc2C)CC1 [Example 55, N-[4-(1-Acetimidoylpiperidin-4-yloxy)-3-methylphenyl]-N-[3-(3-amidinophenyl)-2-(E)-propenyl]sulfamoylacetic Acid Dihydrochloride]",5
12,"CC(=N)N1CCC(Oc2ccc(N(C/C=C/c3cccc(C(=N)N)c3)CCO)cc2)CC1 [Example 28, 3-[3-[N-[4-(1-Acetimidoylpiperidin-4-yloxy)phenyl]-N-(2-hydroxyethyl)amino]-1-(E)-propenyl]benzamidine Trihydrochloride]",9
13,"CNC(=O)c1cc(N(C/C=C/c2cccc(C(=N)N)c2)S(=O)(=O)CC(=O)O)ccc1OC1CCN(C(C)=N)CC1 [Example 38, N-[4-(1-Acetimidoylpiperidin-4-yloxy)-3-(N′-methylcarbamoyl)phenyl]-N-[3-(3-amidinophenyl)-2-(E)-propenyl]sulfamoylacetic Acid Dihydrochloride]",8.7
14,"CC(=N)N1CCC(Oc2ccc(N(C/C=C/c3cccc(C(=N)N)c3)S(=O)(=O)CC(=O)O)cc2C(C)C)CC1 [Example 34, N-[4-(1-Acetimidoylpiperidin-4-yloxy)-3-isopropylphenyl]-N-[3-(3-amidinophenyl)-2-(E)-propenyl]sulfamoylacetic Acid Dihydrochloride]",10
15,"CCOC(=O)CN(C/C=C/c1cccc(C(=N)N)c1)c1ccc(OC2CCN(C(C)=N)CC2)cc1 [Example 23, Ethyl 2-[N-[4-(1-Acetimidoylpiperidin-4-yloxy)phenyl]-N-[3-(3-amidinophenyl)-2-(E)-propenyl]amino]acetate Trihydrochloride]",8.3
16,"CCOC(=O)CS(=O)(=O)N(C/C=C/c1cc(C(=N)N)ccc1O)c1ccc(OC2CCN(C(C)=N)CC2)c(Cl)c1 [Example 41, Ethyl N-[4-(1-Acetimidoylpiperidin-4-yloxy)-3-chlorophenyl]-N-[3-(5-amidino-2-hydroxyphenyl)-2-(E)-propenyl]sulfamoylacetate Dihydrochloride]",7.5
17,"CC(=N)N1CCC(Oc2ccc(N(C/C(F)=C/c3cccc(C(=N)N)c3)S(=O)(=O)CC(=O)O)cc2)CC1 [Example 57, N-[4-(1-Acetimidoylpiperidin-4-yloxy)phenyl]-N-[3-(3-amidinophenyl)-2-fluoro-2-(Z)-propenyl]sulfamoylacetic Acid Dihydrochloride]",9.3
18,"CC(=N)N1CCC(Oc2ccc(N(C/C=C/c3cccc(C(=N)N)c3)S(=O)(=O)CC(=O)O)cc2Cl)CC1 [Example 9, N-[4-(1-Acetimidoylpiperidin-4-yloxy)-3-chlorophenyl]-N-[3-(3-amidinophenyl)-2-(E)-propenyl]sulfamoylacetic Acid Dihydrochloride]",7.4
19,"CC(=N)N1CCC(Oc2ccc(N(CCOc3cccc(C(=N)N)c3)S(=O)(=O)CC(=O)O)cc2)CC1 [Compound A, N-[4-[1-acetimidoyl-4-piperidyloxy]phenyl]-N-[2-(3-amidinophenoxy)ethyl]sulfamoylacetic acid dihydrochloride salt, reference compound]",130
20,"CC(=N)N1CCC(Oc2c(Cl)cc(N(C/C=C/c3cccc(C(=N)N)c3)S(=O)(=O)CC(=O)O)cc2Cl)CC1 [Example 49, N-[4-(1-Acetimidoylpiperidin-4-yloxy)-3,5-dichlorophenyl]-N-[3-(3-amidinophenyl)-2-(E)-propenyl]sulfamoylacetic Acid Dihydrochloride]",9.8
21,"CC(=N)N1CCC(Oc2ccc(N(C/C=C/c3cccc(C(=N)N)c3)S(=O)(=O)CC(=O)O)cc2C(F)(F)F)CC1 [Example 54, N-[4-(1-Acetimidoylpiperidin-4-yloxy)-3-trifluoromethylphenyl]-N-[3-(3-amidinophenyl)-2-(E)-propenyl]sulfamoylacetic Acid Dihydrochloride]",4.6
22,"CC(=N)N1CCC(Oc2ccc(N(C/C=C/c3cccc(C(=N)N)c3)C(C)C)cc2)CC1 [Example 22, 3-[3-[N-[4-(1-Acetimidoylpiperidin-4-yloxy)phenyl]-N-isopropylamino]-1-(E)-propenyl]benzamidine Trihydrochloride]",8.3
23,"CC(=N)N1CCC(Oc2c(F)cc(N(C/C=C/c3cccc(C(=N)N)c3)S(=O)(=O)CC(=O)O)cc2F)CC1 [Example 47, N-[4-(1-Acetimidoylpiperidin-4-yloxy)-3,5-difluorophenyl]-N-[3-(3-amidinophenyl)-2-(E)-propenyl]sulfamoylacetic Acid Dihydrochloride]",3.7

# Target: T2, bovine trypsin (Bos taurus, UniProt P00760)
# T2 construct: purchased Sigma
# T2 sequence (P00760 24-246): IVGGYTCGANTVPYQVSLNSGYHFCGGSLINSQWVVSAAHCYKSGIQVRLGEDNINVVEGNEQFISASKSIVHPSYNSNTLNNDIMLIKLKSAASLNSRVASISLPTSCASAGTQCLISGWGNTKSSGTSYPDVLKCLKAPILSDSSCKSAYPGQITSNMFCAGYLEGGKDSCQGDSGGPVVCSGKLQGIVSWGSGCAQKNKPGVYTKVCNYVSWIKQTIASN
# Assay: Determination of anti-trypsin activity (chromogenic substrate S-2222)
# Assay type: biochemical
# Details: bovine trypsin 0.25 μg-protein/ml, 0.4 mM S-2222, tris-HCl buffer pH 8.4, room temperature, 5 min, absorbance 405 nm
# Description: Anti-trypsin activity was determined according to the method of Taniuchi et al. [Thromb. Haemost., 79, 543 (1998)] with slight modifications. First, 85 μl of a 50 mM tris-HCl buffer (pH 8.4) containing 0.9% NaCl, 5 μl of chromogenic substrate, S-2222 (final concentration of 0.4 mM, Daiichi Pure Chemicals Co., Ltd., Tokyo, Japan) and 5 μl of a test compound were mixed, and the reaction was started by adding 5 μl of bovine trypsin (final concentration of 0.25 μg-protein/ml, Sigma). Distilled water instead of the test compound was added to the buffer in the control group. The reaction mixture in a total volume of 0.1 ml was incubated at room temperature. The absorbance at 405 nm was measured continuously using a 96-well microplate reader (model 550, BioRad), and the increase in absorbance for 5 min was calculated as an index of trypsin activity.
row,Compound,IC50 [nM]
1,"CC(=N)N1CCC(Oc2ccc(N(C/C=C/c3cccc(C(=N)N)c3)S(=O)(=O)CC(=O)O)cc2F)CC1 [Example 11, N-[4-(1-Acetimidoylpiperidin-4-yloxy)-3-fluorophenyl]-N-[3-(3-amidinophenyl)-2-(E)-propenyl]sulfamoylacetic Acid Dihydrochloride]",840
2,"CC(=N)N1CCC(Oc2ccc(N(C/C=C/c3cccc(C(=N)N)c3)S(=O)(=O)CC(=O)O)cc2Cl)CC1 [Example 9, N-[4-(1-Acetimidoylpiperidin-4-yloxy)-3-chlorophenyl]-N-[3-(3-amidinophenyl)-2-(E)-propenyl]sulfamoylacetic Acid Dihydrochloride]",520

# From patent US6555556B1, “Benzamidine derivatives” (Sankyo Company, Limited, priority 1999, dated 2003)
